# According to US10822317B2, “Methods and compositions for wound healing” (QBiotics Limited, priority 2013, dated 2020):
# Columns and labels:
# [1] = system: infected bone wound; infectious vasculitis in the ear; assay: Veterinary case studies 8 and 9, tree kangaroo wounds; type: in vivo, Dendrolagus lumholtzi
# Method: Seven dogs (Canis lupus familiaris) and one tree kangaroo (Dendrolagus humholzii) with chronic, non-healing wounds that were unresponsive to current veterinary standards-of-care for these indications were treated with Compound 1 by independent veterinarians. A second tree kangaroo and a spectacled flying fox (Pteropus conspicillatus) with wounds unsuited for initial treatment with current standards-of-care were also treated with Compound 1. All cases were managed as open wounds without the use of dressings or other bandaging during the course of treatment with Compound 1 and the subsequent period of wound resolution. Unless stated in individual case studies, no concomitant medications were used over the course of treatments with Compound 1.
# The patient was treated for 1 month with injectable antibiotics ceftazidime (Fortum) and trimethoprim sulphamethoxazole (TMS). […] Within 10 minutes of the application of Compound 1 gel there was a purulent discharge from the treated area. • On presentation 8 days after the first treatment a purulent discharge was oozing from 2 of the 3 wounds on the leg. The other wound (smallest lesion on the heal) had contracted and commenced healing. A further treatment of 0.15 mL of 5 mg/mL gel formulation of Compound 1 was used to treat each of the two open wounds (one over the ankle joint, the other on the base of the foot pad). A slow IV. infusion of sodium iodide was also given. • A further 15 days later (23 days after initial treatment) several mLs of thick purulent pus was squeezed from the wound on the pad of the foot before forcing 0.15 mL of 5 mg/mL gel formulation of Compound 1 into the drained wound sinus. • One week later there was significant improvement. in the infection. A small piece of bone was removed from the hole in the foot pad. There was no pus evident but there was a serous discharge. A further 0.2 mL. of the Compound 1 gel was applied to each of lesions, one over the ankle, the other underneath the foot. A slow IV infusion of sodium iodide was also delivered. Limb is now weight bearing. but the heal and foot pad is still very firm with inflammation and the animal's gait is very uneven and strongly favouring the undamaged hind leg. • A further 15 days later the wound over the ankle joint had fully closed and hair was growing back. The wound on the heal of the foot pad had contracted to less than 50% of its size at the previous visit and the surrounding skin and tissue is soft, pliable and normal.
# Case notes: • The patient presented as a young injured animal found in the wild. • Patient was very weak, dehydrated and anaemic. […] Patient was placed on fluid therapy and medicated with anti-nausea drug maropitant citrate (cerenia) and two injectable antibiotic formulations Tribacteral (trimethoprim, sulfadiazine) and ceftazidime (fortum). • After 9 days on a fluid drip the patient's condition had improved but there was trauma to the right ear and likely infectious vasculitis and gangrene. Surgery was not possible because of significant anaesthetic risk due to the patient's highly compromised condition. Instead, treatment with a gel formulation of Compound 1 was initiated. • Three treatments of 0.1 mL of 5 mg/mL strength Compound 1 gel were applied to the affected area at 7 day intervals. The only concurrent medication during this time was the cephalosporin antibiotics deftazidime (fortum). • At 7 days after the first treatment of Compound 1 gel, a tightly adhering eschar covered the wound surface.
# [2] = system: immortalised human keratinocyte cells (HaCaT); assay: Scratch repopulation and closure with HaCaT; type: cell-based; settings: 48 hours, ± standard error
# Method: The ability of immortalised human keratinocyte cells (HaCaT) to migrate across a scratch wound made in a confluent monolayer following treatment with either Compound 1 or Compound 37 was determined by the following method.
# Trypsinised HaCaT cells were seeded at a cell density of 7.4×10^4 cells/mL in 24-well BD Falcon flat-bottomed, tissue culture plates (VWR International, UK) in 1 mL Dulbecco's Modified Eagle Medium (DMEM), supplemented with L-glutamine (2 mM), antibiotics (100 U/mL penicillin G sodium, 100 μg/mL streptomycin sulphate and 0.25 μg/mL amphotericin B); and 10% foetal calf serum (all Invitrogen Ltd., UK) to give a cell density of 7.4×10^4 cells seeded in each well. The cells were then maintained at 37° C. in a 5% CO2/95% air atmosphere overnight. The following morning, the 10% foetal calf serum-containing DMEM was replaced with serum-free DMEM and the HaCaT cells were subsequently serum-starved in DMEM for 48 hr.
# After 48 hr, the serum-free DMEM was removed and a single scratch ‘wound’ made with a sterile pipette across each cell layer. Following washing twice in 1 mL PBS, Compound 1- or Compound 37-containing medium (1 mL) was added to each well. This medium consisted of DMEM, supplemented with L-glutamine (2 mM), antibiotics (as above) and 1% foetal calf serum, in addition to Compound 1 or Compound 37 at final concentrations of 0, 0.001, 0.01, 0.1, 1.0, 10 or 100 μg/mL. There were three replicate wells per concentration for each compound.
# The HaCaT cultures were maintained at 37° C. in a 5% CO2/95% air atmosphere and the repopulation of the denuded ‘wound’ areas monitored by Time-Lapse Confocal Microscopy (Leica TCS SP5 Confocal Microscope; Leica Microsystems UK Ltd., UK) at 100× magnification, with digital images captured at fixed positions every 20 min over a 48 h period. The digital image sequences were exported and prepared as .avi movie files, using LAS AF Software (Leica Microsystems). The rates of HaCaT wound closure in vitro were quantified using ImageJ Software (ImageJ 1.37v; http://rsb.info.nih.gov/ij/). The data was analysed by One Way Analysis of Variance with post-test Tukey analysis. Each experiment was performed on 3 separate occasions.
# [3] = Case 8, 15 days after the fourth application
compound,measurement,setting,value
"CC=C(C)C(=O)OC1C(C)C2(O)C(C3OC3(CO)C(O)C3(O)C(=O)C(C)=CC32)C2C(C)(C)C12OC(=O)C(C)CC (stereo not drawn) [Compound 1, 12-tigloyl-13-(2-methylbutanoyl)-6,7-epoxy-4,5,9,12,13,20-hexahydroxy-1-tigliaen-3-one]",time to purulent discharge from the treated area,"[1]; Case 8, tree kangaroo, infected bone wound, first application 0.1 mL gel 5 mg/mL per lesion",≤ 10 min
same,"wound outcome, wound over the ankle joint","[1]; Case 8, 4 applications gel 5 mg/mL, 15 days after the fourth application",fully closed
same,limb function,[1]; [3],fully weight bearing
same,"wound on the heal of the foot pad, % of its size at the previous visit",[1]; [3],less than 50%
same,reduction of wound area,"[1]; Case 9, tree kangaroo, ear, 3 x 0.1 mL gel 5 mg/mL at 7 day intervals, 14 days after initial treatment",approximately 50%
same,wound status,"[1]; Case 9, 25 days",healthy tissue was present over the entire area of the wound
same,wound outcome,"[1]; Case 9, 67 days",totally resolved and there was full hair coverage over the ear
same,% of scratch wound area remaining open after treatment,[2]; 0.001 μg/ml,8.6 ± 9.4%
same,% of scratch wound area remaining open after treatment,[2]; 0.01 μg/ml,19.7 ± 9.3%
same,% of scratch wound area remaining open after treatment,[2]; 0.1 μg/ml,21.4 ± 5.8%
same,% of scratch wound area remaining open after treatment,[2]; 1.0 μg/ml,35.4 ± 7.9%
same,% of scratch wound area remaining open after treatment,[2]; 10 μg/ml,45.5 ± 7.3%
